Experiments:
[1] = test system: adult patients with schizophrenia; assay: Pooled short-term (4- to 6-week) placebo-controlled schizophrenia trials, safety; type: in vivo, human; conditions: for Somnolence/Sedation, adverse reaction incidence: placebo 10%, 4-methylbenzenesulfonate
Protocol: Of these patients, 811 participated in short-term (4- to 6-week), placebo-controlled trials with doses ranging from 14 to 84 mg/day.
In the 4- to 6-week trials, data were collected using the Simpson Angus Scale (SAS) for EPS (total score ranges from 0 to 40), the Barnes Akathisia Rating Scale (BARS) for akathisia (total score ranges from 0 to 14), and the Abnormal Involuntary Movement Scale (AIMS) for dyskinesia (total score ranges from 0 to 28).

[2] = test system: patients with stable schizophrenia; assay: Uncontrolled open-label trial for up to 1 year; type: in vivo, human
From the text: A total of 4.7% of patients with normal hemoglobin A1c (<6.5%) at baseline developed elevated levels (>6.5%) post-baseline.

[3] = test system: patients with schizophrenia; assay: QTcF four-arm crossover study; type: in vivo, human
Protocol: QTcF interval was evaluated in a randomized, placebo- and active-(moxifloxacin 400 mg) controlled, four-arm crossover study utilizing concentration-QTc effect modeling in 33 patients with schizophrenia.

[4] = test system: adult patients with a diagnosis of schizophrenia; assay: Study 1 (NCT01499563), four-week placebo-controlled, PANSS total score; type: in vivo, human
From the text: Study 1 (NCT01499563) was a four-week, randomized, double-blind, placebo-controlled, multi-center study in adult patients with a diagnosis of schizophrenia according to the DSM-IV-TR criteria. The primary efficacy measure was the Positive and Negative Syndrome Scale (PANSS) total score. The PANSS is a 30-item scale used to measure symptoms of schizophrenia. Each item is rated by a clinician on a seven-point scale. A score of 1 indicates the absence of symptoms, and a score of 7 indicates extremely severe symptoms. The PANSS total score may range from 30 to 210 with higher scores reflecting greater overall symptom severity.
Median age was 42 years (range 20 to 55 years). 17% were female, 19% were Caucasian, and 78% were African American.

[5] = test system: adult patients with a diagnosis of schizophrenia; assay: Study 2 (NCT02282761), four-week placebo-controlled, PANSS total score; type: in vivo, human
From the text: Study 2 (NCT02282761) was a four-week, randomized, double-blind, placebo-controlled, multi-center study in adult patients with a diagnosis of schizophrenia according to the DSM-5 criteria. The primary efficacy measure was the PANSS total score. […] Median age was 44 years (range 19 to 60 years); 23% were female, 26% were Caucasian and 66% were African American.

dopamine D2 receptors = dopamine D2 receptors (Homo sapiens, UniProt P14416); assay: Receptor binding affinity, dopamine D2
Chain of dopamine D2 receptors (P14416 whole entry): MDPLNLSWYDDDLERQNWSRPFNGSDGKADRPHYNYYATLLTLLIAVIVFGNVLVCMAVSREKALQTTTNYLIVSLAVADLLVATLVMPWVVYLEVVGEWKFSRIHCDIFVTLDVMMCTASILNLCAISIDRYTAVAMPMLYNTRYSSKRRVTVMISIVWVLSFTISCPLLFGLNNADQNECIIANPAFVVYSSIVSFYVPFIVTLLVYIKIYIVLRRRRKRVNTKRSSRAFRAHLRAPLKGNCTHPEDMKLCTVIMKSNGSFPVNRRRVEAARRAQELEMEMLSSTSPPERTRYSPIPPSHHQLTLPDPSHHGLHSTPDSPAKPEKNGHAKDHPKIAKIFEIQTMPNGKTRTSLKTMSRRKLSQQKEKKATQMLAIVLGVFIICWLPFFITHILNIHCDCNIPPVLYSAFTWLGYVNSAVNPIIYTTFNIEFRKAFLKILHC

muscarinic receptors = assay: Receptor binding, muscarinic; conditions: at 100 nM
histaminergic receptors = assay: Receptor binding, histaminergic; conditions: at 100 nM
[6] = Human mass balance study, 14C-labeled oral dose; type: in vivo
Plasma protein binding = type: in vitro ADME; conditions: at 5 μM in human plasma (about 70-fold higher than therapeutic concentrations)
[7] = test system: UGT 1A1, 1A4, 2B15; AKR 1C1, 1B10, 1C4; CYP 3A4, 2C8, 1A2; assay: In vitro studies of enzymes involved in metabolism; type: in vitro ADME
[8] = Pharmacokinetics in specific populations; type: in vivo, human
From the text: Use of lumateperone (e.g., lumateperone tosylate) is not recommended for patients with moderate (Child-Pugh class B) to severe hepatic impairment (Child-Pugh class C). […] No dosage adjustment is recommended for patients with mild hepatic impairment (Child-Pugh A).

[9] = Drug interaction: effects of other drugs on lumateperone exposure; parameters: species or system human; conditions: in vivo
From the text: Such concomitant use should therefore be avoided. Moderate CYP 3A4 inhibitors include amprenavir, ciprofloxacin, cyclosporine, diltiazem, erythromycin, fluconazole, fluvoxamine, and verapamil. Strong CYP 3A4 inhibitors include clarithromycin, grapefruit juice, itraconazole, voriconazole, nefazodone, ritonavir, and nelfinavir.
Such concomitant use should therefore be avoided. CYP 3A4 inducers include carbamazepine, phenytoin, rifampin, St. John's wort, bosentan, efavirenz, etravirine, modafinil, nafcillin, aprepitant, armodafinil, pioglitazone, and prednisone.

[10] = Drug interaction: CYP3A4 substrate midazolam; type: in vivo, human; conditions: single or multiple doses of lumateperone in patients with schizophrenia
CYP1A2 [11] = target: CYP1A2 (Homo sapiens, UniProt P05177); assay: In vitro CYP inhibition; type: in vitro ADME
Chain of CYP1A2 (Homo sapiens, UniProt P05177) (P05177 whole entry): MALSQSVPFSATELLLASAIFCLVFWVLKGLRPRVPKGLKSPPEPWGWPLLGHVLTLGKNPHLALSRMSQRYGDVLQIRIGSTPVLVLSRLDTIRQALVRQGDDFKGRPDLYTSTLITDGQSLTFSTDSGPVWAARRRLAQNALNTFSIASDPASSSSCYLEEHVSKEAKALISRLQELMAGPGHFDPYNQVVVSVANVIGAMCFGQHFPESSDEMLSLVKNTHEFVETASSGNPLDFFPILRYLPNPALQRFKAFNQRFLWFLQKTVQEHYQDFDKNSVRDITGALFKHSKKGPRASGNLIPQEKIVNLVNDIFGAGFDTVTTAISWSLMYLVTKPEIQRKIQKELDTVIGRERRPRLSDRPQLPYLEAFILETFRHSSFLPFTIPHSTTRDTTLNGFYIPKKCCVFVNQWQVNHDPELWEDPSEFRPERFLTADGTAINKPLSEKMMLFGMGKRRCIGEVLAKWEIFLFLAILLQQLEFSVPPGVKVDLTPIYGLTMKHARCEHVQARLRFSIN

CYP2C9 = CYP2C9 (Homo sapiens, UniProt P11712); assay: In vitro CYP inhibition; type: in vitro ADME
Chain of CYP2C9 (P11712 whole entry): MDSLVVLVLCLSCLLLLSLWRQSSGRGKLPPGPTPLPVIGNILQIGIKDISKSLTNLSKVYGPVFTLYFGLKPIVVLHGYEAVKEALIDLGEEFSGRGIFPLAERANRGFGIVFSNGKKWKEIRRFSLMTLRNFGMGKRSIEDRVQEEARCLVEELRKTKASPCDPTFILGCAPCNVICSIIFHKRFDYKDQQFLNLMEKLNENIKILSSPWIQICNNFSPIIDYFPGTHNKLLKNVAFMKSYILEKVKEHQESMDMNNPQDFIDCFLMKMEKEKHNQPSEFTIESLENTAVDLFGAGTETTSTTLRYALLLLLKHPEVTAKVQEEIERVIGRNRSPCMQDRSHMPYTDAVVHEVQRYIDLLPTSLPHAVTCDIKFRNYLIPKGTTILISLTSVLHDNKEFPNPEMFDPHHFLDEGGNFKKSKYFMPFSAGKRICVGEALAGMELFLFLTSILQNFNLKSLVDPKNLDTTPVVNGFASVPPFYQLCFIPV

CYP2C19 = CYP2C19 (Homo sapiens, UniProt P33261); assay: In vitro CYP inhibition; type: in vitro ADME
Chain of CYP2C19 (P33261 whole entry): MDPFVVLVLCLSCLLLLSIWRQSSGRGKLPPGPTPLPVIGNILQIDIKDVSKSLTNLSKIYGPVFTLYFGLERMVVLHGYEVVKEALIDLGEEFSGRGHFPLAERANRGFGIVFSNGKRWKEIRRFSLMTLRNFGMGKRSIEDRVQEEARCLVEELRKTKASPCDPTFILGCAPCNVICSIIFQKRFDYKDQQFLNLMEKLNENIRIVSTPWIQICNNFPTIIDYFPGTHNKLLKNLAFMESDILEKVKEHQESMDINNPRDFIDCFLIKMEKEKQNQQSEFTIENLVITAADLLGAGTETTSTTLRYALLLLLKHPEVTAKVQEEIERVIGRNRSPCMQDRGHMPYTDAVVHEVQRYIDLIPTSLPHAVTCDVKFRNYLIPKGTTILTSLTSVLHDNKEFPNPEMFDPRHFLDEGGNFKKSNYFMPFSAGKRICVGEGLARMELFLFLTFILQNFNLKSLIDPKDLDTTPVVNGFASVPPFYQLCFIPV

CYP2D6 = CYP2D6 (Homo sapiens, UniProt P10635); assay: In vitro CYP inhibition; type: in vitro ADME
CYP1A2 [12] = assay: In vitro CYP induction; type: in vitro ADME
CYP2B6 = assay: In vitro CYP induction; type: in vitro ADME
CYP3A4 = assay: In vitro CYP induction; type: in vitro ADME
P-gp = P-gp (Homo sapiens, UniProt P08183); assay: In vitro transporter substrate; type: in vitro ADME
Chain of P-gp (P08183 whole entry): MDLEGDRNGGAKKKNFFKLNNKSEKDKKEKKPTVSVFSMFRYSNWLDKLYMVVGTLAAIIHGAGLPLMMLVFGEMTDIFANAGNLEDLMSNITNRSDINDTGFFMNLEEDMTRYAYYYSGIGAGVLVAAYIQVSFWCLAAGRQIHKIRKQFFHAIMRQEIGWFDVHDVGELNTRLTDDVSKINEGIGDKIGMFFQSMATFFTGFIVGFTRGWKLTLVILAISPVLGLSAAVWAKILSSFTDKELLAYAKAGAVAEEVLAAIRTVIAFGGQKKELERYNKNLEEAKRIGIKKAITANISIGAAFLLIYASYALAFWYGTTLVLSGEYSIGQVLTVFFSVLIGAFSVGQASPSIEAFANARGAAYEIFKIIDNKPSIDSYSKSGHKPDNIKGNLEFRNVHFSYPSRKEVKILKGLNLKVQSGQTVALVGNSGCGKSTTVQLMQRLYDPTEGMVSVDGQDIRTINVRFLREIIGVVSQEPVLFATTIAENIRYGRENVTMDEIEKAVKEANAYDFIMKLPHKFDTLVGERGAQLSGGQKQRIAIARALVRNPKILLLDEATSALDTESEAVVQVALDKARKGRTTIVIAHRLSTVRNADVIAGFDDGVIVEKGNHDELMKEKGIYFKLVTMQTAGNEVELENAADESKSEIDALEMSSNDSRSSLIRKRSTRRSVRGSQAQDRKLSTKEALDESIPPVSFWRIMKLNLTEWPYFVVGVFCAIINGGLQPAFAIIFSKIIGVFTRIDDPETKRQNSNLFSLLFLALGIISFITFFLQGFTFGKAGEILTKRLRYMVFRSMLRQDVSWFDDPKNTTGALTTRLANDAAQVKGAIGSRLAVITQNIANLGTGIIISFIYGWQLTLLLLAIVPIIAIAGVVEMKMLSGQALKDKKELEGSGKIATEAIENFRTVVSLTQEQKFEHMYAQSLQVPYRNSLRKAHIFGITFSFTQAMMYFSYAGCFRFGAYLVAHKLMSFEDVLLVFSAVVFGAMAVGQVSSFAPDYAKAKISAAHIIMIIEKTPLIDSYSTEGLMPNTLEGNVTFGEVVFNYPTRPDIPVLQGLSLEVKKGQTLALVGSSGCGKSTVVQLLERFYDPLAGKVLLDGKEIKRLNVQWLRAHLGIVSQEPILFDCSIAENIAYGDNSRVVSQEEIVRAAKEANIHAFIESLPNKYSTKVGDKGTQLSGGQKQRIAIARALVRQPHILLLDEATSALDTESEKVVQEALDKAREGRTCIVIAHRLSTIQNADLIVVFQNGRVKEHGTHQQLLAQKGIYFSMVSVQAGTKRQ

BCRP = BCRP (Homo sapiens, UniProt Q9UNQ0); assay: In vitro transporter substrate; type: in vitro ADME
Chain of BCRP (Q9UNQ0 whole entry): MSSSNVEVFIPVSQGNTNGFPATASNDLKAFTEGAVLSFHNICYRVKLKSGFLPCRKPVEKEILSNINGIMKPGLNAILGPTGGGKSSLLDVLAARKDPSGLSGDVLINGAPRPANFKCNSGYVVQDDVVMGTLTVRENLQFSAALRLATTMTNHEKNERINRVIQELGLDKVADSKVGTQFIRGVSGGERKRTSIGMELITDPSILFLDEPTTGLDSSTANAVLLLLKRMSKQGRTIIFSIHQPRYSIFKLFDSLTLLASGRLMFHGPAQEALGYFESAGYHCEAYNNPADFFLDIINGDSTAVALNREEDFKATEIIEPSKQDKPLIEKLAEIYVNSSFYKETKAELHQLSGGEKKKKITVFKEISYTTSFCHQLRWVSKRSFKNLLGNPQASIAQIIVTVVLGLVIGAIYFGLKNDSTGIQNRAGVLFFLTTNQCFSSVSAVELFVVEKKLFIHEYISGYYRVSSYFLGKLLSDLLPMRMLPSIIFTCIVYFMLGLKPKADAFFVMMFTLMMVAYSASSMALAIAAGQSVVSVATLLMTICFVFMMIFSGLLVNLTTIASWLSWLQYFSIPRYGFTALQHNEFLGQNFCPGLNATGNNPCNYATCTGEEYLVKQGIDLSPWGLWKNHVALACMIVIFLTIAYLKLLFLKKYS

OCT2 = OCT2 (Homo sapiens, UniProt O15244); assay: In vitro transporter inhibition; type: in vitro ADME
OAT1 = OAT1 (Homo sapiens, UniProt Q4U2R8); assay: In vitro transporter inhibition; type: in vitro ADME
[13] = target: (Homo sapiens, UniProt Q8TCC7); assay: In vitro transporter inhibition; type: in vitro ADME
OATP1B3 = OATP1B3 (Homo sapiens, UniProt Q9NPD5); assay: In vitro transporter inhibition; type: in vitro ADME
OATP1B1 = OATP1B1 (Homo sapiens, UniProt Q9Y6L6); assay: In vitro transporter inhibition; type: in vitro ADME
Chain of OATP1B1 (Q9Y6L6 whole entry): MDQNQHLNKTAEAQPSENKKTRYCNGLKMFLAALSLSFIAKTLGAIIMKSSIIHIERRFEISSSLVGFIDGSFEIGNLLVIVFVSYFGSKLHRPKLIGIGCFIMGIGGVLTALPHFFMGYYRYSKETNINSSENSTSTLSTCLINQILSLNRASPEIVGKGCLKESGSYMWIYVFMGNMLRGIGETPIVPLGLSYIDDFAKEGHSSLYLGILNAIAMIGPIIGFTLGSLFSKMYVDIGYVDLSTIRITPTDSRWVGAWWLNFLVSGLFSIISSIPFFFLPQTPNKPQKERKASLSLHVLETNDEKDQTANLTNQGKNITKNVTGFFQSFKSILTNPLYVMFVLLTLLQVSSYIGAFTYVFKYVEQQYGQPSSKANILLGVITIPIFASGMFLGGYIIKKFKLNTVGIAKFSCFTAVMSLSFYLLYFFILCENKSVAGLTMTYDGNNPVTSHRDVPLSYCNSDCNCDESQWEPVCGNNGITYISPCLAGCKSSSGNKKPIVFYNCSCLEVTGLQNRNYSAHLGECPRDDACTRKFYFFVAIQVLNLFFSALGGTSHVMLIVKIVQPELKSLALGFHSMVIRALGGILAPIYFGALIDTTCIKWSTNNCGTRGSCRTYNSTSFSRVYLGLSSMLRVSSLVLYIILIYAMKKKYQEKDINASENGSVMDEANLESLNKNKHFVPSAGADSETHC

[14] = Pharmacokinetic studies (oral, intravenous, food effect)
[15] = test system: elderly subjects with dementia; conditions: cited from earlier work
[16] = 4- to 6-week trials, 60 mg tosylate daily, N = 406, placebo 1%
[17] = 4- to 6-week trials, 60 mg tosylate daily, N = 406, placebo 2%

CN1CCN2c3c(cccc31)[C@@H]1CN(CCCC(=O)c3ccc(F)cc3)CC[C@@H]12.Cc1ccc(S(=O)(=O)O)cc1 [Lumateperone tosylate, 4-((6bR,10aS)-3-methyl-2,3,6b,9,10,10a-hexahydro-1H,7H-pyrido[3′,4′: 4,5]pyrrolo[1,2,3-de]quinoxalin-8-yl)-1-(4-fluoro-phenyl)-butan-1-one 4-methylbenzenesulfonate]
frequency of reported events related to extrapyramidal symptoms (EPS) ([1]; 4- to 6-week placebo-controlled studies, placebo 6.3%): 6.7% | Creatine Phosphokinase Increased, adverse reaction incidence [1, 16]: 4% | Fatigue, adverse reaction incidence [1, 16]: 3% | Hepatic Enzymes Increased (ALT, AST, “hepatic enzymes” increased, or liver function tests abnormal), adverse reaction incidence [1, 16]: 2% | Dry Mouth, adverse reaction incidence [1, 17]: 6% | Vomiting, adverse reaction incidence [1, 17]: 3% | Dizziness (dizziness, dizziness postural), adverse reaction incidence ([1]; 4- to 6-week trials, 60 mg tosylate daily, N = 406, placebo 3%): 5% | Nausea, adverse reaction incidence ([1]; 4- to 6-week trials, 60 mg tosylate daily, N = 406, placebo 5%): 9% | Somnolence/Sedation, adverse reaction incidence ([1]; 4- to 6-week trials, 60 mg tosylate daily, N = 406): 24% | Somnolence/Sedation, adverse reaction incidence ([1]; 4- to 6-week trials, 60 mg tosylate daily, N = 406, listed as lumateperone tosylate): 24% | mean change from baseline, Barnes Akathisia Rating Scale (BARS) ([1]; 4- to 6-week trials, score range 0 to 14, placebo 0): −0.1 | mean change from baseline, Abnormal Involuntary Movement Scale (AIMS) ([1]; 4- to 6-week trials, score range 0 to 28, placebo 0): 0.1 | mean change from baseline, Simpson Angus Scale (SAS) ([1]; 4- to 6-week trials, score range 0 to 40, placebo 0): 0.1 | frequency of orthostatic hypotension ([1]; clinical trials, placebo 0%): 0.7% | rate of syncope ([1]; clinical trials, placebo 0.2%): 0.2% | rate of any single adverse reaction leading to discontinuation ([1]; none occurred at >2%): ≤ 2% | mean changes from baseline and proportion of subjects with increase in weight ≥7% from baseline to end of study, versus placebo ([1]; pooled placebo-controlled trials): similar | mean change in body weight ([2]; Day 175, SD 5.6): approximately −2 kg | mean change in body weight ([2]; Day 350, SD 7.4): approximately −3.2 kg | patients with normal hemoglobin A1c (<6.5%) at baseline who developed elevated levels (>6.5%) post-baseline ([2]; up to 1 year): 4.7% | placebo-corrected change from baseline QTcF (90% two-sided upper confidence interval) ([3]; 42 mg orally once daily for 5 days): 4.9 (8.9) ms | placebo-corrected change from baseline QTcF (90% two-sided upper confidence interval) ([3]; supratherapeutic dose 126 mg orally once daily for 5 days): 15.8 (19.8) ms | reduction from baseline to Day 28 in PANSS total score compared to placebo ([4]; 42 mg): statistically significant reduction | PANSS Total, Placebo-subtracted Difference (95% CI) ([4]; 42 mg, Day 28, CI −10.5, −1.1): −5.8 | PANSS Total, LS Mean Change from Baseline (SE) ([4]; 42 mg, Day 28, N 84, placebo −7.4 (1.7)): −13.2 (1.7) | treatment effect on PANSS total score vs. placebo ([4]; 84 mg (two times the recommended daily dose)): not statistically significant | treatment effect on PANSS total score vs. placebo ([5]; 28 mg (two-thirds of the recommended daily dose)): not statistically significant | reduction from baseline to Day 28 in PANSS total score compared to placebo ([5]; 42 mg): statistically significant reduction | PANSS Total, Placebo-subtracted Difference (95% CI) ([5]; 42 mg, Day 28, CI −7.8, −0.6): −4.2 | PANSS Total, LS Mean Change from Baseline (SE) ([5]; 42 mg, Day 28, N 150, placebo −10.3 (1.3)): −14.5 (1.3)

CN1CCN2c3c(cccc31)[C@@H]1CN(CCCC(=O)c3ccc(F)cc3)CC[C@@H]12 [Lumateperone, 4-((6bR,10aS)-3-methyl-2,3,6b,9,10,10a-hexahydro-1H,7H-pyrido[3′,4′: 4,5]pyrrolo[1,2,3-de]quinoxalin-8-yl)-1-(4-fluoro-phenyl)-butan-1-one]
Ki (dopamine D2 receptors): 32 nM | inhibition, muscarinic receptors (muscarinic receptors): less than 50% | inhibition, histaminergic receptors (histaminergic receptors): less than 50% | lumateperone share of total plasma radioactivity ([6]; after a single 14C-labeled oral dose): about 2.8% | dose excreted as unchanged lumateperone in the urine ([6]; human mass balance study): Less than 1% | metabolites identified in vivo ([6]; in vivo): more than twenty | fraction unbound at 5 μM (Plasma protein binding): 0.026 | enzymes involved in metabolism [7]: involved in the metabolism | exposure in patients with moderate and severe hepatic impairment ([8]; Child-Pugh class B and C): higher exposure | differences in pharmacokinetics based on age, sex, or race ([8]; in vivo): No clinically significant differences | effect of concomitant CYP3A4 inducers on lumateperone exposure [9]: decreases the exposure | effect of concomitant moderate or strong CYP3A4 inhibitors on lumateperone exposure [9]: increases lumateperone exposure | effect on pharmacokinetics of midazolam (CYP3A4 substrate) or its metabolite 1-hydroxymidazolam [10]: No clinically significant differences | inhibition of CYP1A2 (CYP1A2 [11]): little to no inhibition | inhibition of CYP2C9 (CYP2C9): little to no inhibition | inhibition of CYP2C19 (CYP2C19): little to no inhibition | inhibition of CYP2D6 (CYP2D6): little to no inhibition | induction of CYP1A2 (CYP1A2 [12]): no induction | induction of CYP2B6 (CYP2B6): no induction | induction of CYP3A4 (CYP3A4): no induction | P-gp substrate (P-gp): did not appear to be | BCRP substrate (BCRP): did not appear to be | inhibition of OCT2 (OCT2): little to no inhibition | inhibition of OAT1 (OAT1): little to no inhibition | inhibition of OATS [13]: little to no inhibition | inhibition of OATP1B3 (OATP1B3): little to no inhibition | inhibition of OATP1B1 (OATP1B1): little to no inhibition | increase of mean AUC by food ([14]; high-fat meal): 9% | lowering of mean Cmax by food ([14]; high-fat meal): 33% | Vd ([14]; human, in vivo, iv): ~4.1 L/kg | clearance ([14]; human, in vivo, iv): ~465 mL/min | half-life ([14]; human, in vivo, iv): ~18 h | bioavailability ([14]; human, plasma, oral): ~4.4% | Tmax ([14]; human, plasma, oral, delay of median Tmax by food, high-fat meal): ~1 h | Tmax ([14]; human, plasma, oral, median Tmax, fasted state): 1 h | Tmax ([14]; human, plasma, oral, median Tmax, in the presence of food): 2 h | increase in steady-state exposure with dose ([14]; range of 21 mg to 56 mg): approximately dose-proportional

O=C1CCc2ccc(OCCCCN3CCN(c4cccc(Cl)c4Cl)CC3)cc2N1 [aripiprazole]
incidence of stroke and transient ischemic attack, including fatal stroke, versus placebo [15]: higher incidence

Cc1cc2c(s1)Nc1ccccc1N=C2N1CCN(C)CC1 [olanzapine]
incidence of stroke and transient ischemic attack, including fatal stroke, versus placebo [15]: higher incidence

Cc1nc2n(c(=O)c1CCN1CCC(c3noc4cc(F)ccc34)CC1)CCCC2 [risperidone]
incidence of stroke and transient ischemic attack, including fatal stroke, versus placebo [15]: higher incidence

From patent publication US20210186962A1, “METHODS OF SCHIZOPHRENIA TREATMENT” (INTRA-CELLULAR THERAPIES, INC., priority 2019, published 2021)
